Test results published in patent US5654296A, “Condensed heterocyclic compounds, their production and use” (priority 1994, dated 1997).
Counter-ions that a name gives are not always drawn.

What was measured:
serotonine (5-HT) uptake = test: Activity to inhibit serotonine (5-HT) uptake; assay type: biochemical; details: rat whole brain; 3H-5-HT 10 nM; 37° C.; pH 7.4; read-out: 5-HT uptake inhibitory activity (IC50 μM)
Procedure: (a) Activity to inhibit serotonine (5-HT) uptake
(§1) The experiment was performed in accordance with the method of Hyttel et al. [Psychopharmacology 60, 13, 1978]. The whole brain of a rat was homogenized in 40 volumes of ice-cooled 0.32M sucrose solution containing 10 μM pargyline and, then, centrifuged (600×G) for 10 minutes. The supernatant was centrifuged (2500×G) for 55 minutes to provide a pellet. This pellet was suspended in Krebs-Ringer-phosphate buffer (pH 7.4; 122 mM NaCl, 4.82 mM KCl, 0.972 mM CaCl2, 1.21 mM MgSO4, 12.7 mM Na2 HPO4, 2.97 mM NaH2 PO4, 0.162 mM EDTA sodium, 10 mM glucose, 1.14 mM ascorbic acid) saturated with a mixed gas (95% O and 5% CO2). To 900 μl of this suspention was added a solution of the test drug (10 μl) in DMSO and the mixture was incubated at 37° C. for 5 minutes. Then, 100 μl of ^3 H-5-HT (final concentration 10 nM) was added and the mixture was further incubated at 37° C. for 5 minutes. This reaction mixture was filtered under suction using a GF/B filter and the filter was washed with 4 ml of the above-mentioned buffer. The radioactivity on the filter was measured by the liquid scintillation method.
The amount of the drug which caused a 50% decrease in 5-HT uptake is shown as 50% inhibitory activity (IC50) in Table 42.

[1] = test system: 45Ca2+ uptake (veratrine-stimulated, rat cerebral cortex crude synaptosome fraction); test: 45Ca2+ uptake inhibition experiment; assay type: biochemical; details: 30 μM veratrine, 37° C., 10 minutes, read-out: 45Ca2+ uptake inhibitory activity (IC50 μM)
Procedure: The rat cerebral cortex was homogenized in 10 volumes of ice-cooled 0.32M sucrose solution to prepare a crude synaptosome fraction (100×G, 10 min., 12000×G, 20 min.). […] To 900 μl of the homogenate was added a DMSO solution of the test drug (10 μl). The mixture was incubated at 37° C. for 10 minutes, followed by addition of 100 μl of a veratrine solution (containing 0.18 uci ^45 Ca^2+) at a final veratrine concentration of 30 μM. The mixture was incubated at 37° C. for 10 minutes, quenched with 4 ml of ice-cooled EGTA solution (120 mM sodium chloride, 5 mM potassium chloride, 5 mM EGTA, pH=7.5) and suction-filtered using a GF/B filter. The filter was washed twice with 4 ml each of a washing solution (132 mM sodium chloride, 5 mM potassium chloride, 1.3 mM magnesium chloride, 1.2 mM calcium, chloride, 20 mM Tris base, pH 7.5) and the radioactivity of […] was measured by the liquid scintillation method.
The ^45 Ca^2+ uptake inhibition rate was calculated by means of the following equation. [formula] A: The ^45 Ca^2+ uptake after 10 minutes' stimulation with 30 μM veratrine in the presence of the test drug
B: The ^45 Ca^2+ uptake in the absence of veratrine and in the presence of the test drug
C: The ^45 Ca^2+ uptake after 10 minutes' stimulation with 30 μM veratrine in the absence of the test drug
D: The ^45 Ca^2+ uptake in the absence of the test drug and in the absence of veratrine

[2] = test system: norepinephrine (NE) uptake; test: Activity to inhibit norepinephrine (NE) uptake; assay type: biochemical; details: rat cerebral cortex; 3H-NE; read-out: NE uptake inhibitory activity (IC50 μM)
Procedure: as §1
(b) Activity to inhibit norepinephrine (NE) uptake
Using the rat cerebral cortex and, as the substrate, ^3 H-NE, an experiment was performed by otherwise the same procedure as described for 5-HT.

[3] = target: T1, GnRH receptors (rat pituitary anterior lobe membrane fraction) (Rattus norvegicus, UniProt P30969); test: 125I-leuprolerin GnRH receptor binding inhibition test, rat pituitary anterior lobe membrane fraction; details: 4° C., 90 minutes, read-out: Binding inhibitory activity (IC50 μM) Rat
T1 construct: the anterior lobe of the pituitary gland was isolated and washed with ice-cooled homogenate buffer; from tissue; host or cells: anterior lobe of the pituitary gland, male Wistar rats (8 weeks old), membrane fraction
T1 sequence (P30969 1-327): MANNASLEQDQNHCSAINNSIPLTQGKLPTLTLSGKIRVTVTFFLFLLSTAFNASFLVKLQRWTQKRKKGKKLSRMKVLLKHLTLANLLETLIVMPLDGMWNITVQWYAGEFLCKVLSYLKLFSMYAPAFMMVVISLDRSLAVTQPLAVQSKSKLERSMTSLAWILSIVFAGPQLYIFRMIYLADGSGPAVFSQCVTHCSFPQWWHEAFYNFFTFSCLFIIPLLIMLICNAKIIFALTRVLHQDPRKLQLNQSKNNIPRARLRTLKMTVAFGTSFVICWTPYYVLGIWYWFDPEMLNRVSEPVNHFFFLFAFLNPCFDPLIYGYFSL
Procedure: Ten (10) μl of 3×10^4 M aqueous leuprolerin solution and 10 μl of 0.01 mg/ml lactoperoxidase were taken in a tube and 10 μl of Na^125 I solution (37 MBq) was added. After stirring, 10 μl of 0.001% H2 O2 was added and the reaction was conducted at room temperature for 20 minutes. Then, 700 μl of 0.05% TFA solution was added to the tube to terminate the reaction and the reaction mixture was purified by reverse-phase HPLC. The HPLC conditions are shown below. ^125 I-leuprolerin was eluted after a retention time of 26-27 minutes. (B) Preparation of a Rat Pituitary Anterior Lobe Membrane Fraction Containing GnRH Receptors […] The pituitary tissue was floated in 2 ml of the homogenate buffer and homogenized using a Polytron homogenizer. The homogenate was centrifuged at 700×G for 15 minutes. The supernatant was taken in an ultracentrifuge tube and centrifuged at 100,000×G for 1 hour to provide a membrane fraction pellet. […] The membrane fraction recovered as a pellet was resuspended in 10 ml of assay buffer, divided into portions, preserved at -80° C. and thawed when needed. […] For the rat and human membrane fractions prepared in (B) and (D), each membrane fraction was diluted with assay buffer to a concentration of 200 μg/ml and distributed in 188 μl portions into tubes. As to the bovine membrane fraction prepared in (C), the membrane fraction was diluted with assay buffer to 750 μg/ml and distributed in 188 μl portions into tubes. […] Where the rat or bovine pituitary anterior lobe membrane fraction was used, the reaction was conducted at 4° C. for 90 minutes. Where the membrane fraction of the CHO with human GnRH receptors expressed was used, the reaction was carried out at 25° C. for 60 minutes. […] After filtration, the radioactivity of ^125 I-leuprolerin remaining on the filter was measured with a γ-counter. The expression (TB-SB)/(TB-NSB)×100 (where SB=radioactivity with the compound added, TB=maximum bound radioactivity, NSB=nonspecifically bound radioactivity) was calculated to find the binding inhibition rate of each test compound.

[4] = target: T2, GnRH receptors (bovine pituitary anterior lobe membrane fraction) (Bos taurus, UniProt P32236); test: 125I-leuprolerin GnRH receptor binding inhibition test, bovine pituitary anterior lobe membrane fraction; details: 4° C., 90 minutes, read-out: Binding inhibitory activity (IC50 μM) Bovine
T2 construct: A bovine pituitary anterior lobe membrane fraction containing GnRH receptors was prepared; from tissue; host or cells: bovine pituitary anterior lobe, membrane fraction
T2 sequence (P32236 1-328): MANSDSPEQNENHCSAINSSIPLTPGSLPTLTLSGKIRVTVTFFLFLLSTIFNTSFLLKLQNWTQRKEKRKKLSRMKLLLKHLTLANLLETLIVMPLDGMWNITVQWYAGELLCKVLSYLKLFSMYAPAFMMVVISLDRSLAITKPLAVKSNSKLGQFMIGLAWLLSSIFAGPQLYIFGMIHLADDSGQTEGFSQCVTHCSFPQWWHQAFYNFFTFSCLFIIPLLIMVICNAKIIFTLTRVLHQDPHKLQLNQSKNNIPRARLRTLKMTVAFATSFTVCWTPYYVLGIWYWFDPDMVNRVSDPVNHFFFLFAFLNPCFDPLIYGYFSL
Procedure: Ten (10) μl of 3×10^4 M aqueous leuprolerin solution and 10 μl of 0.01 mg/ml lactoperoxidase were taken in a tube and 10 μl of Na^125 I solution (37 MBq) was added. After stirring, 10 μl of 0.001% H2 O2 was added and the reaction was conducted at room temperature for 20 minutes. Then, 700 μl of 0.05% TFA solution was added to the tube to terminate the reaction and the reaction mixture was purified by reverse-phase HPLC. The HPLC conditions are shown below. ^125 I-leuprolerin was eluted after a retention time of 26-27 minutes. (C) Preparation of a Bovine Pituitary Anterior Lobe Membrane Fraction Containing GnRH Receptors A bovine pituitary anterior lobe membrane fraction containing GnRH receptors was prepared by the same procedure as described under (B). However, a 10,000×G centrifugation supernatant was recentrifuged at 100,000×G for 1 hour to provide the membrane fraction pellet. […] For the rat and human membrane fractions prepared in (B) and (D), each membrane fraction was diluted with assay buffer to a concentration of 200 μg/ml and distributed in 188 μl portions into tubes. As to the bovine membrane fraction prepared in (C), the membrane fraction was diluted with assay buffer to 750 μg/ml and distributed in 188 μl portions into tubes. […] Where the rat or bovine pituitary anterior lobe membrane fraction was used, the reaction was conducted at 4° C. for 90 minutes. Where the membrane fraction of the CHO with human GnRH receptors expressed was used, the reaction was carried out at 25° C. for 60 minutes. […] After filtration, the radioactivity of ^125 I-leuprolerin remaining on the filter was measured with a γ-counter. The expression (TB-SB)/(TB-NSB)×100 (where SB=radioactivity with the compound added, TB=maximum bound radioactivity, NSB=nonspecifically bound radioactivity) was calculated to find the binding inhibition rate of each test compound.

Structure (SMILES)	IC50 (serotonine (5-HT) uptake)	IC50 [1]	IC50 [2]	IC50 [3]	IC50 [4]
COc1ccc(CCNCCCC2(c3ccccc3)COCc3ccccc32)cc1OC (stereo not drawn) [Example I-25, 4-[3-(3,4-Dimethoxyphenethylamino)propyl]-4-phenylisochroman hydrochloride]	0.14 µM	1.19 µM	0.39 µM		
Cc1cccc(CNCCCC2(c3ccccc3)COCc3ccccc32)c1 (stereo not drawn) [Example I-46, 4-[3-(m-Methylbenzylamino)propyl]-4-phenylisochroman hydrochloride]				0.5 µM	14 µM
Fc1ccc(N2CCN(CCCC3(c4ccccc4)COCc4ccccc43)CC2)cc1 (stereo not drawn) [Example I-30, 4-{3-[4-(p-Fluorophenyl)piperazin-1-yl]propyl}-4-phenylisochroman dihydrochloride]	0.068 µM	1.59 µM	0.59 µM		
COc1ccc2c(c1)CCC1(CCCCN1CCCC1(c3ccccc3)COCc3ccccc31)C2=O (stereo not drawn) [Example I-48, 3,4-Dihydro-6-methoxy-1'-[3-(4-phenylisochroman-4-yl)propyl]spiro[1-oxonaphthalene-2-(1H),2'-piperidine] hydrochloride]				0.4 µM	10 µM
c1ccc(C2CCN(CCCC3(c4ccccc4)COCc4ccccc43)CC2)cc1 (stereo not drawn) [Example I-33, 4-[3-(4.-Phenylpiperidino)propyl]-4-phenylisochroman hydrochloride]	0.27 µM	0.69 µM	0.55 µM		
COc1cc2c(cc1OC)CC1(CCCCN1CCCC1(c3ccc(F)cc3)COCc3ccccc31)CC2 (stereo not drawn) [Example I-50, 3,4-Dihydro-6,7-dimethoxy-1'-{3-[4-(p-fluorophenyl)isochroman-4-yl]propyl}spiro[naphthalene-2(1H),2'-piperidine] hydrochloride]				0.08 µM	8 µM
CN(CCCC1(c2ccccc2)CN(C(=O)Nc2ccccc2)Cc2ccccc21)Cc1ccccc1 (stereo not drawn) [IV-19, 4-[3-(N-Benzyl-N-methylamino)propyl]-4-phenyl-2-phenylcarbamoyl-1,2,3,4-tetrahydroisoquinoline hydrochloride]	0.23 µM	0.95 µM	0.56 µM		
COc1cccc(NC(=O)N2Cc3ccccc3C(CCN3CCN(c4ccc(F)cc4)CC3)(c3ccccc3)C2)c1 (stereo not drawn) [IV-20, 1,2,3,4-Tetrahydro-4-{2-[4-(p-fluorophenyl)piperazin-1-yl]ethyl}-2-(3-methoxyphenyl)carbamoyl-4-phenylisoquinoline hydrochloride]	0.03 µM	0.17 µM	0.12 µM		
O=C1c2ccccc2CCC12CCCCN2CCCC1(c2ccccc2)COCc2ccccc21 (stereo not drawn) [Example I-49, 3,4-Dihydro-1'-[3-(4-phenylisochroman-4-yl)propyl]spiro[1-oxonaphthalene-2(1H),2'-piperidine] hydrochloride]				0.5 µM	10 µM
c1ccc(C2(CCN3CCCCC34CCc3ccccc3C4)COCc3ccccc32)cc1 (stereo not drawn) [Example I-12, 3,4-Dihydro-1'-[2-(4-phenylisochroman-4-yl)ethyl]spiro[naphthalene-2(1H),2'-piperidine] hydrochloride]	0.022 µM	0.85 µM	0.015 µM		
COc1cc2c(cc1OC)CC1(CCCCN1CCCC1(c3ccccc3)COCc3ccccc31)CC2 (stereo not drawn) [Example I-37, 3,4-Dihydro-6,7-dimethoxy-1'-[3-(4-phenylisochroman-4-yl)propyl]spiro[naphthalene-2(1H),2'-piperidine] hydrochloride]				0.03 µM	6 µM
c1ccc(C2(CCCNC3CCCc4ccccc43)COCc3ccccc32)cc1 (stereo not drawn) [Example I-51, 4-Phenyl-4-{3-[1-(1,2,3,4-tetrahydronaphthylamino)]propyl]isochroman hydrochloride]				0.5 µM	10 µM
